Source: article PMC4047469 (Molecular & Cellular Proteomics : MCP, 2014)

Tests used:
FGFR2 = FGFR2 (Homo sapiens, UniProt P21802); test: in vitro kinase assay; type: biochemical
DDR2 = target: T1, DDR2 (Homo sapiens, UniProt Q16832); test: autophosphorylation immunoblot; type: cell-based; details: 293T cells, collagen I 20 μg/ml, 120 min; E-3810 2, 8, 32 μM
T1 sequence (Q16832 22-855): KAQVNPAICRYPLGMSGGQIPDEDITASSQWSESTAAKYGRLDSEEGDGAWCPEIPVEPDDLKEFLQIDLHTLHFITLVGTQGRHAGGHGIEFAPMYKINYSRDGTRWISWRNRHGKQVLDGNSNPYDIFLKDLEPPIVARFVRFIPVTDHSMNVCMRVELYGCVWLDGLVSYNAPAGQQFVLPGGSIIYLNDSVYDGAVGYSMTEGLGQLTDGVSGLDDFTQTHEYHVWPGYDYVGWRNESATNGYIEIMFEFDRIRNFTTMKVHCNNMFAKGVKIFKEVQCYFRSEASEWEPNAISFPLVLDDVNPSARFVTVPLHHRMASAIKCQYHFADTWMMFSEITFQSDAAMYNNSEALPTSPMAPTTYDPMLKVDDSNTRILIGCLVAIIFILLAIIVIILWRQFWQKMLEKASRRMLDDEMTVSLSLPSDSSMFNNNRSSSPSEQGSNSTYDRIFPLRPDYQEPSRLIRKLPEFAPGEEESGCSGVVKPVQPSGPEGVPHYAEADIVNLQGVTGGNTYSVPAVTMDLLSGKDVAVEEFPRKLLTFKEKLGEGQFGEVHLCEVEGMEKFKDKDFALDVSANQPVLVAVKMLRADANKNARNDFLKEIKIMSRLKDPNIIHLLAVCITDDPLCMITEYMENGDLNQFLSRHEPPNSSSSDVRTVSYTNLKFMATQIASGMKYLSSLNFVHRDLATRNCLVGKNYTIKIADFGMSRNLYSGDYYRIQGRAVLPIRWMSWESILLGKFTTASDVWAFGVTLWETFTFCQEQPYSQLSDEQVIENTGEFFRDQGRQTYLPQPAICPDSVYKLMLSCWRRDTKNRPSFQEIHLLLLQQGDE

SRC = SRC (Homo sapiens, UniProt P12931); test: radiometric filter-binding kinase assay; type: biochemical
SRC, sequence (P12931 2-536): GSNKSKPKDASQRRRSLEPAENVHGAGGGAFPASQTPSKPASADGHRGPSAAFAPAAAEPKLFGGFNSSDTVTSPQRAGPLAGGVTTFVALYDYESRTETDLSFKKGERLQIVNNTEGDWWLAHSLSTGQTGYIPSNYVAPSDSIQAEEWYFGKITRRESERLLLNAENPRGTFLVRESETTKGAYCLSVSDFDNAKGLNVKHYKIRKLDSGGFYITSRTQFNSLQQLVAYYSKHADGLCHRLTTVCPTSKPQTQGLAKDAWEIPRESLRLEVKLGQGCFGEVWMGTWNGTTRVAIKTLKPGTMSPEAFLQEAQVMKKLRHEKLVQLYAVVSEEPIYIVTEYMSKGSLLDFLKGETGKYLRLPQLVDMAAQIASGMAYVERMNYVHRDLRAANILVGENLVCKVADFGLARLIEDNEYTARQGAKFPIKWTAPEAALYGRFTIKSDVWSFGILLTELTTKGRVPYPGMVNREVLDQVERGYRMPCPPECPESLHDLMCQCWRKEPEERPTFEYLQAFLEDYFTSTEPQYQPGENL

FGFR2, sequence (P21802 22-821): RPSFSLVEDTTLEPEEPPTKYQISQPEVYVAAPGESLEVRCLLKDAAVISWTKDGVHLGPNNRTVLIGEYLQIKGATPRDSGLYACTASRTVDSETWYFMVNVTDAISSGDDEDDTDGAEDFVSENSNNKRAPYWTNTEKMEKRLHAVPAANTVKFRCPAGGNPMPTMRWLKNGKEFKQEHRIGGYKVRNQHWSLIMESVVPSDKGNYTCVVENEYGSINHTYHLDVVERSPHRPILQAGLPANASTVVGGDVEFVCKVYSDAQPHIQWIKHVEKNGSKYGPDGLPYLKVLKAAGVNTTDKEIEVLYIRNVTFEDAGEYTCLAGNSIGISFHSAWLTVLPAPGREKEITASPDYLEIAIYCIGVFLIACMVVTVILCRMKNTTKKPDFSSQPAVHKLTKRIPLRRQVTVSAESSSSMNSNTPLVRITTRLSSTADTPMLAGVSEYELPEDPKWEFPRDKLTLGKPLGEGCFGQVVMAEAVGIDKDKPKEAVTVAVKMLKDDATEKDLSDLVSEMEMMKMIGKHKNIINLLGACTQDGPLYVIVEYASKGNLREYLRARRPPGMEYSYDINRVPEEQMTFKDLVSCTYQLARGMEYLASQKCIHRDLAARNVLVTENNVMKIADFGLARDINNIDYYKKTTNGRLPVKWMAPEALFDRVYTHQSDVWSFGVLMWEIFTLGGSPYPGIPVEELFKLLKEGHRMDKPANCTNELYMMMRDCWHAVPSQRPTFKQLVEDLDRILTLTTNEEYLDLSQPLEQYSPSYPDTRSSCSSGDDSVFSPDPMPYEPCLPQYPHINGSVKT

SMILES: CNC(=O)c1cccc2cc(Oc3ccnc4cc(OCC5(N)CC5)c(OC)cc34)ccc12 [compound 1, E-3810]
- IC50 (FGFR2): 77 nM
- autophosphorylation immunoblot (DDR2): increasing concentrations of E-3810 resulted in the reduction of DDR2 autophosphorylation
- Ki (SRC): > 50000 nM
